The numbers were not newly measured in patent publication US11793840B2, “Nano-armored single cell product for treating Parkinson's disease through bacteria and a preparation method thereof” (Tangyi Holdings(Shenzhen) Limited, priority 2021, dated 2023), which cites them from elsewhere.

Structures are written as SMILES.

For `NCCCC(=O)O` [GABA, Gamma-aminobutyric acid], under “in vivo”, the “in-vivo terminal elimination half-life” value is 25.1 min. Also, for the setting “oral administration of GABA”, the oral bioavailability was 9.81%.
